In patent US12691100B2, “NMT inhibitor treatment of a senescence-associated disease or disorder of the liver” (Imperial College Innovations Limited, priority 2020, dated 2026):

Assay: High fat diet model of nonalcoholic steatohepatitis (NASH)
Format: in vivo, male C57/BL6 mice
Settings: HFD mice, 10 mg/kg
Excerpt: For high-fat diet experiments C57BL/6J male mice aged 8-weeks old were placed on Chow or high-fat diet (kcal 40% fat (non-trans-fat Primex Shortening), kcal 20% fructose, 2% cholesterol, D1602230i) for 4 weeks prior to first round of injections. […] Blood was collected prior to each round of injection for physiological assessments. Mice were allowed to rest 4 weeks prior to being culled and organs collected for freezing in OCT, paraffin embedding, blood collection for physiological measurements and tissue snap-freezing for RNA extraction.
For analysis of immune cell composition in whole blood, tail-vein blood was collected 2 days after last treatment. Whole blood was diluted in saline to a volume of […] and ran on a Sysmex XE2100 automated cell counter. Blood glucose levels were determined by collecting whole-blood from tail vein into heparinised tubes (Abraxis), 120-140 μL of whole-blood to be loaded onto a comprehensive diagnostic profile reagent rotor (Abraxis) and run on a VetScan VS2 Chemistry Analyzer (Abraxis: 500-7123).
Immunohistochemical staining—Slides were deparaffinised by washing slides twice in Histoclear™ for 5 min each, followed by 5 min washes in decreasing concentrations of ethanol with 100%, 75%, 50% & 25% ethanol washes before a final wash 5 min in dH2O. Heat induced epitope retrieval (HIER) was then performed in pressure cooker for 20 min using either antigen-unmasking solution, Citrate-based at pH 6.0 (VectorLab H-3300-250) or antigen-unmasking solution, Tris-based at pH 9.0 (VectorLab H-3301-250) depending on antibody manufacturers' instructions. Following HIER, slides were cooled on ice for 10 min and then washed in PBS for 5 min. For intracellular stains, sections were permeabilized with 0.2% Triton X-100 in PBS for 10 min and washed twice in PBS for 5 min. For NRAS staining in liver slides were washed in 0.1% H2O2 in PBS for 15 min followed by washing twice in PBS to reduce endogenous peroxide activity. Sections were marked using hydrophobic pen and Non-specific antigen binding was blocked by incubating slides with CAS-Block™ Histochemical reagent (ThermoFisher, 008120) for 30-45 min in a humidified chamber. Slides were then incubated with primary antibody overnight in a humidified chamber at 4° C. For experiments utilising p21 antibody, slides were incubated with primary p21 antibody (p21 [EPR18021], Abcam, 1:200) overnight in a humidified chamber at 4° C. Slides were washed twice in PBS for 5 min and incubated with secondary antibody SignalStain® Boost IHC detection reagent Mouse/Rabbit, HRP (Cell Signalling Technology, 8125) for 30-45 min. Next, slides were washed twice in PBS for 5 min and incubated for 2-10 min with SignalStain® DAB substrate kit (CST, 8059) to detect HRP signal. Signal development was stopped when visible positive cells could be detected on a microscope, by washing slides in dH2O. To counterstain DAB signal, slides were incubated for 30 s in Modified Mayer's Hematoxylin (Lillie's Modification) (DAKO), washed in dH2O, and incubated for 30 s in 0.05% Ammonium solution (PBS) followed by washing in dH2O. Prior to mounting coverslips with VectaMount aqueous mounting media (VectorLab, H-5501-60) slides were dehydrated by washing 1 min in 75% Ethanol, 5 min in 100% Ethanol and 5 min in Histoclear®.
Oil Red O staining for lipids was carried out on liver tissue in OCT was snap-frozen in liquid N2 and cryosectioned (15 μM). Sections were equilibrated to RT for 10 min and then stained with 0.5% Oil Red O solution (w/v, in isopropanol, Sigma, O1391) for 5 min, rinsed in tap water and counterstained with Mayer's hematoxylin for 30 s. Then sections were again rinsed in tap water for 30 min and coverslips mounted. Images were acquired on Zeiss AxioScan Z.1 and ImageJ quantification of Oil-red stain area relative to background tissue area performed for 3 fields per section. […]

For `Cc1c(NS(=O)(=O)c2c(Cl)cc(-c3ccnc(N4CCNCC4)c3)cc2Cl)c(CC(C)C)nn1C` [Compound 2], the “Liver fibrosis (Sirius red staining)” value (FIG. 23) was “normalized”, the “p21^CIP1-positive hepatocytes in the liver” value (FIG. 24A) was “reduction of p21^CIP1-positive hepatocytes” and the “Lipid accumulation (steatosis) in liver” value (FIG. 24D) was “reduction in this lipid accumulation”. The “Transcriptional signatures of collagen formation in liver” value (GSEA, FIG. 24E) was “downregulation”, the “Transcriptional signature of Fridman senescence in liver” value (GSEA, FIGS. 24B-C) was “downregulation” and the “Transcriptional signature of senescence-associated secretory phenotype in liver” value (GSEA, FIGS. 24B-C) was “downregulation”. For the same compound, the “Col1a1 mRNA in liver” value (RT-qPCR, FIGS. 24F-G) was “lower”, the “Col4a1 mRNA in liver” value (RT-qPCR, FIGS. 24F-G) was “lower” and the ALP in blood (before 3rd round, FIGS. 22B-D) was “normalised”. For the same compound, the ALT in blood (before 3rd round, FIGS. 22B-D) was “normalised”, the Albumin in blood (before 3rd round, FIGS. 22B-D) was “normalised” and the suPAR in blood (before 3rd round, versus vehicle, FIG. 22A) was “lower levels of suPAR”.
